Legend:
recombinant ICE = molecular target: T1, recombinant ICE (Homo sapiens, UniProt P29466); test: Fluorometric enzyme assay, cleavage of substrate by recombinant ICE; format: biochemical; settings: for ICE Vmax / Km: 1-100 μM substrate, 37° C.; for Km: NA = no activity observed at 1-100 μM substrate, 3 h incubation; for efficiency as substrate for ICE: summary of Table 4
T1 construct: made in house; host or cells: Sf9 insect cells, baculovirus vector
T1 sequence (P29466 120-297 limits assumed): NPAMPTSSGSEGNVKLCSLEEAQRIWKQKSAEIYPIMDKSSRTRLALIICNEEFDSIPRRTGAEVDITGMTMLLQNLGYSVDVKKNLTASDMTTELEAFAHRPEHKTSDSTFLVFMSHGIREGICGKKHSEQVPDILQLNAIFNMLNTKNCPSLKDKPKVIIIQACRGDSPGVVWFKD
T1 sequence (P29466 317-404 limits assumed): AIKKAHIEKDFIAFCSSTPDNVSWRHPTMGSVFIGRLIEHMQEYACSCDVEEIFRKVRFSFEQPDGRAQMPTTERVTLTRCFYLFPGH
Procedure: (§1) The activities of N-(Z-VD)-N′-acetyl-Rhodamine 110, N-(Z-VAD)-N′-acetyl-Rhodamine 110, N-(Z-DEVD)-N′-acetyl-Rhodamine 110 SEQ ID NO:5, N-(Z-YVAD)-N-acetyl-Rhodamine 110 SEQ ID NO:2, (Z-VAD)2-Rhodamine 110 and (Z-YVAD)2-Rhodamine 110 SEQ ID NO:2 as synthetic substrates for recombinant CPP32 and ICE were measured in a fluorometric enzyme assay. […] See, Webb, N. R. et al., “Expression of proteins using recombinant Baculovirus,” Techniques 2:173-188 (1990). Cleavage of the synthetic substrates by the enzyme results in a fluorescent signal which is read in a spectrofluorometer or in a fluorometric microtiter plate reader. Using this assay, the Km and Vmax values were determined for each substrate with either CPP32 or ICE.
(§2) CPP32 and ICE dependent substrate cleavage was measured using the following buffer conditions: 100 mM HEPES pH 7.5, with 10% sucrose, 1% CHAPS, 5 mM glutathione, and 1-100 μM test substrate. Nonspecific enzyme cleavage was determined with the use of the specific CPP32 and ICE inhibitors consisted of an oligomer with the sequence Asp-Glu-Val-Asp or Tyr-Val-Ala-Asp, respectively, with an aldehyde group conjugated to the C-terminus. The assay for enzyme activity was typically carried out at 37° C. for 60 minutes.

recombinant CPP32 = molecular target: T2, recombinant CPP32 (Homo sapiens, UniProt P42574); test: Fluorometric enzyme assay, cleavage of substrate by recombinant CPP32; format: biochemical; settings: for efficiency as substrate for CPP32: summary of Table 4; for CPP32 Vmax: 1-100 μM substrate, 37° C.
T2 construct: made in house; host or cells: Sf9 insect cells, baculovirus vector
T2 sequence (P42574 29-175 limits assumed): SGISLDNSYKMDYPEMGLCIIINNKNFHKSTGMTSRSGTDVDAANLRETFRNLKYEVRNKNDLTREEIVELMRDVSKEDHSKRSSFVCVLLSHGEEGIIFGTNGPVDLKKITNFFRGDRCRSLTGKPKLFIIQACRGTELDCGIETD
T2 sequence (P42574 176-277 limits assumed): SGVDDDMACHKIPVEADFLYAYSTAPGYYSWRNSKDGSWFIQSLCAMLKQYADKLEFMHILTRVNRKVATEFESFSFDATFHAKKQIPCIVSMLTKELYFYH
Procedure: as §1, §2

[1] = system: apoptotic HL-60 cell lysates; test: Cleavage of caspase-3 substrates by apoptotic HL-60 cell lysates; format: biochemical; settings: 10 μM or 50 μM substrate, 37° C., vinblastine treated HL-60 cell lysates
Procedure: (§3) The caspase substrates were assayed by recombinant caspase-3 and by lysates prepared from apoptotic HL-60 cells. The assays were carried out at 37° C. in 96-well plates in a 100 μL incubation containing 30 μL of caspase-3 preparation or cell lysate, 10 μM or 50 μM of the substrate, and caspase assay buffer (40 mM 1,4-piperazinebis(ethansulfonic acid) (PIPES, Aldrich Chemical Company) pH 7.2; 100 mM NaCl; 10% sucrose; 0.1% CHAPS; 1 mM EDTA; 10 mM DTT). At the end of the incubation period, the fluorescence was measured on a Bio-Tek FL500 fluorescence microplate reader using excitation and emission wavelengths of 485 and 530 nm, respectively. Two different controls were run: 1) an enzyme blank consisting of samples containing substrate, but without enzyme or cell lysate; 2) an inhibitor control, consisting of samples which contained the caspase inhibitor, Ac-DEVD-CHO (f.c., 10 μM).

[2] = molecular target: T3, recombinant human caspase-3 (Homo sapiens, UniProt P42574); test: Cleavage of caspase-3 substrates by recombinant human caspase-3; format: biochemical; settings: 10 μM or 50 μM substrate, 37° C.
T3 sequence (P42574 29-175 limits assumed): T2 sequence (P42574 29-175 limits assumed)
T3 sequence (P42574 176-277 limits assumed): T2 sequence (P42574 176-277 limits assumed)
Procedure: as §3

HL-60 cells = test: Uptake and retention of modified Rhodamine dyes by HL-60 cells (epifluorescence microscopy); format: cell-based; settings: 10 μM or 50 μM dye; for staining of HL-60 cells: 37° C., serum-free Iscove's medium; for leakage of the dye into the medium / retention in cells: after washing
Procedure: HL-60 cells were placed in 5 ml of Iscove's medium (without serum or phenol-red) containing 10 μM or 50 μM N-octyloxycarbonyl-Rhodamine 110, N-decyloxycarbonyl-Rhodamine-110, N-dodecyloxycarbonyl-Rhodamine-110, N-hexyloxycarbonyl-Rhodamine-110, N-(ethylthio)carbonyl-Rhodamine 110 or Rhodamine 110. The cells were incubated for varying times at 37° C. in a CO2 incubator, recovered by centrifugation, and washed in 50 mL of ice-cold medium. The cells were re-centrifuged and the final pellet was resuspended in 50 μL of fresh medium. Aliquots of each cell suspension were placed in microslides and viewed on a Nikon inverted microscope with epifluorescent illumination.

[3] = Fluorescence of modified Rhodamine dyes (spectrometry and spectrofluorometry); format: physicochemical
Procedure: Modified Rhodamine dyes were evaluated using both conventional spectrometry and spectrofluorometry. For both types of analysis the dyes were dissolved in either methanol or 50 mM Tris at final dye concentrations ranging from 10 nM to 100 μM. An absorbance spectrum from wavelengths of 200 nm to 700 nm was determined for each dye using a Beckman DU-7000 spectrophotometer. The dyes all had absorbance peaks at around 470 to 480 nm. This wavelength was chosen as the fluorescence excitation wavelength and a full fluorescence emission spectrum was determined using a Hitachi F-2000 spectrofluorometer. For each dye, the emission peak was around 520 nm and the fluorescent output was measured under the conditions tested (see Table 1).

Row | SMILES | ICE Vmax (recombinant ICE) [nmol/min] | Km (recombinant ICE) [µM] | efficiency as substrate for ICE (recombinant ICE) | efficiency as substrate for CPP32 (recombinant CPP32) | Cleavage by Caspase-3 [2] | Cleavage by Apoptotic Lysates [1] | other results
1 | CC(C)[C@H](NC(=O)[C@H](Cc1ccc(O)cc1)NC(=O)OCc1ccccc1)C(=O)N[C@@H](C)C(=O)N[C@@H](CC(=O)O)C(=O)Nc1ccc2c(c1)Oc1cc(NC(=O)[C@H](CC(=O)O)NC(=O)[C@H](C)NC(=O)[C@@H](NC(=O)[C@H](Cc3ccc(O)cc3)NC(=O)OCc3ccccc3)C(C)C)ccc1C21OC(=O)c2ccccc21 [(Z-YVAD)2-Rhodamine 110, (Z-Tyr-Val-Ala-Asp)2-Rhodamine 110] | 14 | 6 | efficient substrates | not for CPP32 | – | – | –
2 | CCSC(=O)Nc1ccc2c(c1)Oc1cc(NC(=O)[C@H](CC(=O)O)NC(=O)[C@@H](NC(=O)[C@H](CCC(=O)O)NC(=O)[C@H](CC(=O)O)NC(C)=O)C(C)C)ccc1C21OC(=O)c2ccccc21 (stereo partly drawn) [N-Ac-DEVD-N′-(ethylthio)carbonyl-R110, N-(Ac-Asp-Glu-Val-Asp)-N′-(ethylthio)carbonyl-Rhodamine 110] | – | – | – | – | Good | Good | –
3 | CCCCCCOC(=O)Nc1ccc2c(c1)Oc1cc(NC(=O)[C@H](CC(=O)O)NC(=O)[C@@H](NC(=O)[C@H](CCC(=O)O)NC(=O)[C@H](CC(=O)O)NC(C)=O)C(C)C)ccc1C21OC(=O)c2ccccc21 (stereo partly drawn) [N-Ac-DEVD-N′-hexyloxycarbonyl-R110, N-(Ac-Asp-Glu-Val-Asp)-N′-hexyloxycarbonyl-Rhodamine-110] | – | – | – | – | Good | Good | –
4 | CCCCCCOC(=O)Nc1ccc2c(c1)Oc1cc(N)ccc1C21OC(=O)c2ccccc21 (centres unmarked) [N-Hexyloxycarbonyl-Rhodamine 110, N-Hexyloxycarbonyl-Rhodamine-110] | – | – | – | – | – | – | staining of HL-60 cells (HL-60 cells): stained HL-60 cells less intensely; leakage of the dye into the medium / retention in cells (HL-60 cells): still well-retained; Peak Emission Wavelength ([3]; Test Conc. 0.1 μM, MeOH): 520 nm; Peak Excitation Wavelength ([3]; Test Conc. 0.1 μM, MeOH): 465 nm; Signal Amplitude ([3]; Test Conc. 0.1 μM, MeOH): 109
5 | CCCCCCCCOC(=O)Nc1ccc2c(c1)Oc1cc(N)ccc1C21OC(=O)c2ccccc21 (centres unmarked) [N-Octyloxycarbonyl-Rhodamine 110] | – | – | – | – | – | – | staining of HL-60 cells (HL-60 cells): stained HL-60 cells intensely; leakage of the dye into the medium / retention in cells (HL-60 cells): almost no leakage of the dye into the medium; Peak Emission Wavelength ([3]; Test Conc. 1 μM, MeOH): 520 nm; Peak Excitation Wavelength ([3]; Test Conc. 1 μM, MeOH): 470 nm; Signal Amplitude ([3]; Test Conc. 1 μM, MeOH): 850
6 | Cl.N=c1ccc2c(-c3ccccc3C(=O)O)c3ccc(N)cc3oc-2c1 [Rhodamine 110, reference compound] | – | – | – | – | – | – | staining of HL-60 cells (HL-60 cells): low intensity of cellular staining; leakage of the dye into the medium / retention in cells (HL-60 cells): quickly leaked out of the cells; Peak Emission Wavelength ([3]; Test Conc. 0.01 μM, Tris): 520 nm; Peak Excitation Wavelength ([3]; Test Conc. 0.01 μM, Tris): 490 nm; Signal Amplitude ([3]; Test Conc. 0.01 μM, Tris): 284

More lines, main results first:

Row | ICE Vmax (recombinant ICE) [nmol/min] | Km (recombinant ICE) [µM] | efficiency as substrate for ICE (recombinant ICE) | efficiency as substrate for CPP32 (recombinant CPP32) | Cleavage by Caspase-3 [2] | SMILES | Cleavage by Apoptotic Lysates [1] | other results
7 | 9 | 21 | efficient substrates | not for CPP32 | – | CC(C)[C@H](NC(=O)OCc1ccccc1)C(=O)N[C@@H](C)C(=O)N[C@@H](CC(=O)O)C(=O)Nc1ccc2c(c1)Oc1cc(NC(=O)[C@H](CC(=O)O)NC(=O)[C@H](C)NC(=O)[C@@H](NC(=O)OCc3ccccc3)C(C)C)ccc1C21OC(=O)c2ccccc21 [(Z-VAD)2-Rhodamine 110, (Z-Val-Ala-Asp)2-Rhodamine 110] | – | –
8 | 9 | 12 | efficient substrate | efficient substrate | – | CC(=O)Nc1ccc2c(c1)Oc1cc(NC(=O)[C@H](CC(=O)O)NC(=O)[C@@H](NC(=O)[C@H](CCC(=O)O)NC(=O)[C@H](CC(=O)O)NC(=O)OCc3ccccc3)C(C)C)ccc1C21OC(=O)c2ccccc21 (stereo partly drawn) [N-(Z-DEVD)-N′-Ac-Rhodamine 110, N-(Z-Asp-Glu-Val-Asp)-N′-acetyl-Rhodamine 110] | – | CPP32 Vmax (recombinant CPP32): 160 nmol/min
9 | 4 | 70 | efficient substrates | not for CPP32 | – | CC(=O)Nc1ccc2c(c1)Oc1cc(NC(=O)C(CC(=O)O)NC(=O)C(C)NC(=O)C(NC(=O)OCc3ccccc3)C(C)C)ccc1C21OC(=O)c2ccccc21 (stereo not drawn) [N-(Z-VAD)-N′-Ac-Rhodamine 110, N-(Z-Val-Ala-Asp)-N′-acetyl-Rhodamine 110] | – | –
10 | – | – | not for ICE | efficient substrate | – | CC(=O)Nc1ccc2c(c1)Oc1cc(NC(=O)C(CC(=O)O)NC(=O)C(NC(=O)OCc3ccccc3)C(C)C)ccc1C21OC(=O)c2ccccc21 (centres unmarked) [N-(Z-VD)-N′-Ac-Rhodamine 110, N-(Z-Val-Asp)-N′-acetyl-Rhodamine 110] | – | CPP32 Vmax (recombinant CPP32): 11 nmol/min
11 | 96 | 32 | efficient substrates | not for CPP32 | – | CC(=O)Nc1ccc2c(c1)Oc1cc(NC(=O)[C@H](CC(=O)O)NC(=O)[C@H](C)NC(=O)[C@@H](NC(=O)[C@H](Cc3ccc(O)cc3)NC(=O)OCc3ccccc3)C(C)C)ccc1C21OC(=O)c2ccccc21 (stereo partly drawn) [N-(Z-YVAD)-N′-Ac-Rhodamine 110, N-(Z-Tyr-Val-Ala-Asp)-N′-acetyl-Rhodamine 110] | – | –
12 | – | – | – | – | Good | CCOC(=O)Nc1ccc2c(c1)Oc1cc(NC(=O)[C@H](CC(=O)O)NC(=O)[C@@H](NC(=O)[C@H](CCC(=O)O)NC(=O)[C@H](CC(=O)O)NC(C)=O)C(C)C)ccc1C21OC(=O)c2ccccc21 (stereo partly drawn) [N-Ac-DEVD-N′-ethoxycarbonyl-R110, N-(Ac-Asp-Glu-Val-Asp)-N′-ethoxycarbonyl-Rhodamine 110] | Good | –
13 | – | – | – | – | Good | CCOC(=O)Nc1ccc2c(c1)Oc1cc(NC(=O)[C@H](CC(=O)O)NC(=O)[C@@H](NC(=O)[C@H](CCC(=O)O)NC(=O)[C@H](CC(=O)O)NC(=O)OCc3ccccc3)C(C)C)ccc1C21OC(=O)c2ccccc21 (stereo partly drawn) [N-Z-DEVD-N′-ethoxycarbonyl-R110, N-(Cbz-Asp-Glu-Val-Asp)-N′-ethoxycarbonyl-Rhodamine 110] | Good | –

From patent US6759207B2, “Fluorogenic or fluorescent reporter molecules and their applications for whole-cell fluorescence screening assays for caspases and other enzymes and the use thereof” (Cytovia, Inc., priority 1997, dated 2004)
